{
  "source": "paper PMC5570288",
  "about": "“Hot-spot identification on a broad class of proteins and RNA suggest unifying principles of molecular recognition” (PLoS ONE, 2017)",
  "target": "T1, RecA (Escherichia coli, UniProt P0A7G6)",
  "T1 construct": "assay 'as previously described'; homo-oligomer",
  "T1 sequence (P0A7G6 2-353)": "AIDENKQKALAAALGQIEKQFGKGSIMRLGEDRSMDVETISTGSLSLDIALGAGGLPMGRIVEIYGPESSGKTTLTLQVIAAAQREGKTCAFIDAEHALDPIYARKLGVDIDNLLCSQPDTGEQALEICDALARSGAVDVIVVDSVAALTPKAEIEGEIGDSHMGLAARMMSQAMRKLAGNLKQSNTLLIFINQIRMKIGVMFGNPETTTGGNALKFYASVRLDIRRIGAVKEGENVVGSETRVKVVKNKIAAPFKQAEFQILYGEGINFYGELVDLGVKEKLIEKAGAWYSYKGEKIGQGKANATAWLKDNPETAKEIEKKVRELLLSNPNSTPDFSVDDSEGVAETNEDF",
  "assay": "coupled ATPase assay, ADP to H2O2, amplex red / resorufin fluorescence",
  "type": "biochemical",
  "data": [
    {"smiles": "NCCc1cc(O)c(O)cc1O", "note": "[6-hydroxydopamine]", "values": [
      {"measurement": "IC50", "result": 23, "unit": "µM"}
    ]}
  ]
}
